Source: patent publication US8664269B2, “Nitroglycerin therapy for those unable to metabolize nitroglycerin” (Duke University, priority 2005, dated 2014)

Legend:
[1] = test system: patient with persistent angina; assay: Example I: GTN therapy of persistent angina, patient; type: in vivo, human
Protocol: A patient has persistent angina. Treatment by infusion with GTN 100 mcg/min has no effect. Infusion of nitroglycerin 100 mcg/min is continued along with infusion of N-acetylcysteine at 50 mg/kg every six hours.

[2] = test system: patient with congestive heart failure; assay: Example II: GTN therapy of congestive heart failure, patient; type: in vivo, human
Protocol: A patient has congestive heart failure manifested by pulmonary congestion and low ventricular function. Treatment by infusion with GTN (100 mcg/min) has no effect. Infusion of GTN (100 mcg/min) is continued along with infusion of N-acetylcysteine at 50 mg/kg every 6 hours. After 10 minutes time, pulmonary congestion attenuates and ventricular function improves.

[3] = test system: patient with Type 1 diabetes on insulin regimen who develops angina; assay: Example III: GTN therapy of angina, Type 1 diabetes patient on insulin regimen; type: in vivo, human
[4] = test system: alcoholic patient who develops angina; assay: Example IV: GTN therapy of angina in an alcoholic; type: in vivo, human; conditions: for resolution of angina: 600 mg P.O. (TID) with sublingual GTN (0.4 mg)
Source text: A alcoholic needs to imbibe alcohol to avoid withdrawal symptoms. The patient develops angina. Sublingual GTN ([…]) has no effect.

[5] = test system: alcoholic with restenosis and chest pain; assay: Example VI: restenosis and chest pain in an alcoholic; type: in vivo, human
Source text: A alcoholic has restenosis and chest pain.

[6] = test system: alcoholic with chronic obstructive pulmonary disease; assay: Example VIII: obstructive lung disease in an alcoholic, shortness of breath; type: in vivo, human
Source text: A alcoholic with obstructive lung disease (chronic obstructive pulmonary disease) has shortness of breath.

Patient with asthma = assay: Example IX: asthma, patient, shortness of breath; type: in vivo, human; conditions: nebulized combination of GTN (100 micromolar) and NAC (dose of I millimolar)
Source text: A patient with asthma experiences shortness of breath.

[7] = test system: Patient with interstitial lung disease (pulmonary fibrosis); assay: Example X: interstitial lung disease (pulmonary fibrosis), patient; type: in vivo, human; conditions: nebulized GTN (10 micromolar) together with nebulized NAC (1 millimolar); patient on prednisone therapy
Source text: A patient with interstitial lung disease (pulmonary fibrosis) experiences shortness of breath despite being on prednisone therapy.

[8] = test system: patients receiving continuous GTN; conditions: intravenous NAC, short term studies; cited from earlier work
[9] = test system: patient with heart attack (myocardial infarction); assay: Example V: myocardial infarction, patient; type: in vivo, human; conditions: IV GTN alone
Source text: A patient has a heart attack (myocardial infarction).

[10] = test system: person with high blood pressure; assay: Example VII: high blood pressure; type: in vivo, human; conditions: 50 mg/min IV GTN alone; 200 mmHg systolic
Protocol: A person has high blood pressure (200 mmHg systolic). […] Administration of Composition V (50 mg/ml and NAC 75 mg/ml) at 1 ml/min causes blood pressure to fall to 160 mmHg.

[11] = infusion of N-acetylcysteine 50 mg/kg every six hours along with infusion of nitroglycerin 100 mcg/min
[12] = infusion of N-acetylcysteine 50 mg/kg every 6 hours along with infusion of GTN 100 mcg/min
[13] = infusion of GTN 100 mcg/min alone

With `CC(=O)N[C@@H](CS)C(=O)O` [N-acetylcysteine] the resolution of angina [1, 11] was “the angina is resolved”, the “time until angina is resolved” value [1, 11] was 3 min and the pulmonary congestion [2, 12] was “attenuates”. The “time until pulmonary congestion attenuates and ventricular function improves” value [2, 12] was 10 min, the ventricular function [2, 12] was “improves” and the resolution of angina ([3]; N-acetylcysteine 600 mg P.O. TID along with sublingual GTN (0.4 mg)) was “causes the angina to resolve”. The resolution of angina [4] was “resolution of the angina”, the chest pain ([5]; oral NAC (300 mg) supplementing sublingual GTN 0.5 mg) was “chest pain is relieved” and the shortness of breath ([6]; nebulized combination of GTN (100 micromolar) and NAC (1 millimolar)) was “causes improvement”. The shortness of breath (Patient with asthma) was “causes improvement”, the shortness of breath [7] was “causes improvement” and the GTN tolerance [8] was “reverse GTN tolerance”.

In the case of `N[C@@H](CCC(=O)N[C@@H](CS)C(=O)NCC(=O)O)C(=O)O` [glutathione], the resolution of angina [4] is reported as “resolution of the angina” and the chest pain ([5]; glutathione 60 mg P.O. (T.I.D.) supplementing sublingual GTN 0.5 mg) is reported as “chest pain is relieved”.

In the case of `O=C1O[C@H]([C@@H](O)CO)C(O)=C1O` [Vitamin C, ascorbic acid], the resolution of angina ([3]; Vitamin C 10,000 mg/day P.O. along with sublingual GTN (0.4 mg)) is reported as “causes the angina to resolve” and the chest pain ([5]; oral vitamin C (10,000 mg/day P.O.) supplementing sublingual GTN 0.5 mg) is reported as “chest pain is relieved”.

With `O=[N+]([O-])OCC(CO[N+](=O)[O-])O[N+](=O)[O-]` [GTN, nitroglycerin] the “effect on persistent angina” value [1, 13] was “no effect”, the “effect on congestive heart failure (pulmonary congestion, low ventricular function)” value [2, 13] was “no effect” and the effect on angina ([3]; sublingual GTN (0.4 mcg) alone) was “no effect”. The effect on angina ([4]; sublingual GTN (0.4 mcg) alone) was “no effect”, the “response of myocardial infarction patient” value [9] was “does not respond” and the chest pain ([5]; sublingual GTN 0.5 mg alone) was “does not relieve chest pain”. For the same compound, the “response of high blood pressure” value [10] was “does not respond” and the shortness of breath ([6]; nebulized GTN at a dose of 100 micromolar alone) was “does not cause improvement”.
